Laboratory results from PubChem BioAssay AID256 (DTP/NCI, 2004).
Several values for one entry are separate records, joined by “and”; a condition that tells them apart may be missing. Equal entries are not always repeated. Toxic doses and inconclusive results are not listed. How the source made its calls: active means survival T/C of 150% or more; inactive means T/C below 125% in these data.

Tested on: CD2F1 mice, L1210 leukemia ip, survival T/C
Experiment: NCI In Vivo Anticancer Drug Screen. Data for tumor model L1210 Leukemia (intraperitoneal) in CD2F1 (CDF1) mice
Details: higher = longer survival
Method in brief: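 Compound-dosed mice with transplantable tumor versus matched vehicle controls; endpoint ratio T/C reported.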

[1] = endpoint: mean survival time, dose: 100.0 mg/kg/injection, schedule: Q01DX001 (ip), vehicle: saline with Tween-80
[2] = endpoint: mean survival time, dose: 200.0 mg/kg/injection, schedule: Q01DX001 (ip), vehicle: saline with Tween-80
[3] = endpoint: mean survival time, dose: 25.0 mg/kg/injection, schedule: Q04DX003 (ip), vehicle: saline with Tween-80
[4] = endpoint: mean survival time, dose: 50.0 mg/kg/injection, schedule: Q04DX003 (ip), vehicle: saline with Tween-80
[5] = endpoint: mean survival time, dose: 100.0 mg/kg/injection, schedule: Q04DX003 (ip), vehicle: saline with Tween-80
[6] = endpoint: mean survival time, dose: 25.0 mg/kg/injection, schedule: Q04DX003 (ip), vehicle: saline
[7] = endpoint: mean survival time, dose: 50.0 mg/kg/injection, schedule: Q04DX003 (ip), vehicle: saline
[8] = endpoint: mean survival time, dose: 12.5 mg/kg/injection, schedule: Q01DX009 (ip), vehicle: saline with Tween-80
[9] = endpoint: mean survival time, dose: 100.0 mg/kg/injection, schedule: Q01DX009 (ip), vehicle: saline with Tween-80
[10] = endpoint: mean survival time, dose: 200.0 mg/kg/injection, schedule: Q01DX009 (ip), vehicle: saline with Tween-80
[11] = endpoint: mean survival time, dose: 50.0 mg/kg/injection, schedule: Q01DX009 (ip), vehicle: saline with Tween-80
[12] = endpoint: mean survival time, dose: 400.0 mg/kg/injection, schedule: Q01DX009 (ip), vehicle: saline with Tween-80
[13] = endpoint: mean survival time, dose: 100.0 mg/kg/injection, schedule: Q01DX001 (ip), vehicle: saline
[14] = endpoint: mean survival time, dose: 200.0 mg/kg/injection, schedule: Q01DX001 (ip), vehicle: saline
[15] = endpoint: mean survival time, dose: 400.0 mg/kg/injection, schedule: Q01DX001 (ip), vehicle: saline

Measured: T/C

O=C1C(Br)=CC2C1C1C=CC2(Br)C1=O (stereo not drawn)
inactive: endpoint: mean survival time, dose: 50.0 mg/kg/injection, schedule: Q01DX001 (ip), vehicle: saline with Tween-80 109 % of control | [1] 103 % of control | [2] 101 % of control

N#CC1C(=O)c2ccccc2C1=O
inactive: [3] 91 % of control | [4] 93 % of control | [5] 93 % of control

CC(=O)OC1CCCCCCCCCCC12OCCO2 (stereo not drawn)
inactive: endpoint: mean survival time, dose: 100.0 mg/kg/injection, schedule: Q04DX002 (ip), vehicle: other 104 % of control | endpoint: mean survival time, dose: 400.0 mg/kg/injection, schedule: Q04DX002 (ip), vehicle: other 115 % of control

CCOC(=O)Nc1cc2c(c(N)n1)N=C(c1ccccc1)CO2
inactive: endpoint: median survival time, dose: 25.0 mg/kg/injection, schedule: Q01DX009 (ip), vehicle: saline with Tween-80 97 % of control | endpoint: median survival time, dose: 50.0 mg/kg/injection, schedule: Q01DX009 (ip), vehicle: saline with Tween-80 117 % of control and 107 % of control and 108 % of control | endpoint: median survival time, dose: 100.0 mg/kg/injection, schedule: Q01DX009 (ip), vehicle: saline with Tween-80 122 % of control and 112 % of control (2×) | endpoint: median survival time, dose: 200.0 mg/kg/injection, schedule: Q01DX009 (ip), vehicle: saline with Tween-80 115 % of control and 116 % of control and 117 % of control

O=P(O)(O)OCC(O)CF (stereo not drawn)
inactive: endpoint: mean survival time, dose: 87.5 mg/kg/injection, schedule: Q04DX003 (ip), vehicle: saline 118 % of control

CC1CC(C(=O)O)C(S(N)(=O)=O)C1 (stereo not drawn)
inactive: endpoint: mean survival time, dose: 50.0 mg/kg/injection, schedule: Q04DX002 (ip), vehicle: saline 97 % of control | endpoint: mean survival time, dose: 100.0 mg/kg/injection, schedule: Q04DX002 (ip), vehicle: saline 108 % of control | endpoint: mean survival time, dose: 200.0 mg/kg/injection, schedule: Q04DX002 (ip), vehicle: saline 108 % of control

C[As](C)[Se]C1OC(CO)C(O)C(O)C1O (stereo not drawn)
inactive: endpoint: mean survival time, dose: 12.5 mg/kg/injection, schedule: Q01DX009 (ip), vehicle: saline 103 % of control | endpoint: mean survival time, dose: 12.5 mg/kg/injection, schedule: Q04DX003 (ip), vehicle: saline 94 % of control | endpoint: mean survival time, dose: 25.0 mg/kg/injection, schedule: Q01DX009 (ip), vehicle: saline 100 % of control | [6] 97 % of control | endpoint: mean survival time, dose: 50.0 mg/kg/injection, schedule: Q01DX009 (ip), vehicle: saline 102 % of control | [7] 100 % of control

COC(=O)c1ccc(OC)c2nc3c(C=O)c(OC)cc(OC)c3nc12
inactive: endpoint: mean survival time, dose: 5.3 mg/kg/injection, schedule: Q01DX009 (ip), vehicle: saline with Tween-80 94 % of control | endpoint: mean survival time, dose: 8.0 mg/kg/injection, schedule: Q01DX009 (ip), vehicle: saline with Tween-80 92 % of control | endpoint: mean survival time, dose: 12.0 mg/kg/injection, schedule: Q01DX009 (ip), vehicle: saline with Tween-80 94 % of control | endpoint: mean survival time, dose: 18.0 mg/kg/injection, schedule: Q01DX009 (ip), vehicle: saline with Tween-80 97 % of control

Cc1c(C(=O)O)nc(CC(O)C(Cl)(Cl)Cl)[nH]c1=O (stereo not drawn)
inactive: endpoint: mean survival time, dose: 25.0 mg/kg/injection, schedule: Q01DX005 (ip), vehicle: other 106 % of control | endpoint: mean survival time, dose: 50.0 mg/kg/injection, schedule: Q01DX005 (ip), vehicle: other 101 % of control | endpoint: mean survival time, dose: 100.0 mg/kg/injection, schedule: Q01DX005 (ip), vehicle: other 101 % of control | endpoint: mean survival time, dose: 200.0 mg/kg/injection, schedule: Q01DX005 (ip), vehicle: other 103 % of control | endpoint: mean survival time, dose: 400.0 mg/kg/injection, schedule: Q01DX005 (ip), vehicle: other 95 % of control

CC(=O)C(C(C)=O)C(=[C-]C(F)(F)F)C(F)(F)F.CC(=O)C(C(C)=O)C(=[C-]C(F)(F)F)C(F)(F)F.[Pd+2]
inactive: endpoint: mean survival time, dose: 3.13 mg/kg/injection, schedule: Q04DX003 (ip), vehicle: distilled water + Tween-80 102 % of control | endpoint: mean survival time, dose: 6.25 mg/kg/injection, schedule: Q04DX003 (ip), vehicle: distilled water + Tween-80 96 % of control | endpoint: mean survival time, dose: 12.5 mg/kg/injection, schedule: Q04DX003 (ip), vehicle: distilled water + Tween-80 102 % of control

C=C(Cl)CSCCS
inactive: endpoint: mean survival time, dose: 50.0 mg/kg/injection, schedule: Q01DX009 (ip), vehicle: acetone 101 % of control | endpoint: mean survival time, dose: 100.0 mg/kg/injection, schedule: Q01DX009 (ip), vehicle: acetone 103 % of control

CCCCc1ccc2nc(NC(=O)OC)[nH]c2c1
inactive: endpoint: mean survival time, dose: 6.25 mg/kg/injection, schedule: Q01DX009 (ip), vehicle: saline with Tween-80 107 % of control | [8] 113 % of control | [10] 86 % of control
active: [9] 166 % of control

O=NN(CCOS(=O)(=O)c1ccc(Br)cc1)C(=O)NC1CCCCC1
inactive: endpoint: mean survival time, dose: 100.0 mg/kg/injection, schedule: Q01DX001 (ip), vehicle: other 102 % of control | endpoint: mean survival time, dose: 200.0 mg/kg/injection, schedule: Q01DX001 (ip), vehicle: other 101 % of control

Nc1cc(Cl)c(Cl)cc1Cl
inactive: [11] 93 % of control | [9] 106 % of control | [5] 100 % of control | [10] 95 % of control | endpoint: mean survival time, dose: 200.0 mg/kg/injection, schedule: Q04DX003 (ip), vehicle: saline with Tween-80 94 % of control | [12] 108 % of control

COc1ccccc1OCC1CO1 (stereo not drawn)
inactive: [13] 101 % of control | [14] 102 % of control | [15] 102 % of control

CC(C)c1ccc(N=Nc2ccc(C(C)C)cc2)cc1
inactive: [13] 101 % of control | [14] 97 % of control | [15] 93 % of control

CC#CC(=O)SCCNC(=O)CCNC(C)=O
inactive: [8] 112 % of control | endpoint: mean survival time, dose: 25.0 mg/kg/injection, schedule: Q01DX009 (ip), vehicle: saline with Tween-80 102 % of control | [6] 105 % of control | [11] 108 % of control | [7] 112 % of control | [9] 119 % of control | endpoint: mean survival time, dose: 100.0 mg/kg/injection, schedule: Q04DX003 (ip), vehicle: saline 103 % of control

CCC[CH2][Sn]1([CH2]CCC)[O]OC2(CCCCC2)[O]1
inactive: endpoint: mean survival time, dose: 1.25 mg/kg/injection, schedule: Q01DX009 (ip), vehicle: saline with Tween-80 105 % of control | endpoint: mean survival time, dose: 2.5 mg/kg/injection, schedule: Q01DX009 (ip), vehicle: saline with Tween-80 105 % of control | endpoint: mean survival time, dose: 5.0 mg/kg/injection, schedule: Q01DX009 (ip), vehicle: saline with Tween-80 105 % of control

CCOC(=O)c1cn[nH]c1/N=C/N(C)C
inactive: [1] 98 % of control | [2] 104 % of control | endpoint: mean survival time, dose: 400.0 mg/kg/injection, schedule: Q01DX001 (ip), vehicle: saline with Tween-80 106 % of control

O=C(COc1ccc(Cl)c(Cl)c1)Nc1ccc[n+](Cc2ccccc2)c1
inactive: endpoint: mean survival time, dose: 12.5 mg/kg/injection, schedule: Q04DX003 (ip), vehicle: saline with Tween-80 104 % of control | [3] 98 % of control | [4] 89 % of control

O=C1CC(c2ccc([N+](=O)[O-])cc2)=Nc2ccccc2N1
inactive: [9] 102 % of control | [10] 101 % of control | [12] 96 % of control

CC/C=C(/CC)C1CCCCC1C (stereo not drawn)
inactive: [11] 87 % of control | [9] 96 % of control | [10] 96 % of control

OC1C(I)CC(Cl)C2CCC[N-]C12.OC1C(I)CC(Cl)C2CCC[N-]C12.[Cu+2] (stereo not drawn)
inactive: endpoint: mean survival time, dose: 100.0 mg/kg/injection, schedule: Q04DX002 (ip), vehicle: saline with Tween-80 96 % of control | endpoint: mean survival time, dose: 200.0 mg/kg/injection, schedule: Q04DX002 (ip), vehicle: saline with Tween-80 92 % of control | endpoint: mean survival time, dose: 400.0 mg/kg/injection, schedule: Q04DX002 (ip), vehicle: saline with Tween-80 88 % of control

CCCCCCCCCCS(=O)CC(CO)NC(=O)/C=C/c1c(C)[nH]c(=O)[nH]c1=O (stereo not drawn)
inactive: endpoint: mean survival time, dose: 0.37 mg/kg/injection, schedule: Q01DX009 (ip), vehicle: distilled water + Tween-80 102 % of control and 106 % of control | endpoint: mean survival time, dose: 0.75 mg/kg/injection, schedule: Q01DX009 (ip), vehicle: distilled water + Tween-80 110 % of control and 111 % of control | endpoint: mean survival time, dose: 1.5 mg/kg/injection, schedule: Q01DX009 (ip), vehicle: distilled water + Tween-80 113 % of control and 101 % of control | endpoint: mean survival time, dose: 3.0 mg/kg/injection, schedule: Q01DX009 (ip), vehicle: distilled water + Tween-80 114 % of control and 117 % of control | endpoint: mean survival time, dose: 6.0 mg/kg/injection, schedule: Q01DX009 (ip), vehicle: distilled water + Tween-80 117 % of control | endpoint: mean survival time, dose: 12.0 mg/kg/injection, schedule: Q01DX009 (ip), vehicle: distilled water + Tween-80 89 % of control and 96 % of control

O=C(CC(C(=O)c1ccccc1)c1ccccc1)c1ccccc1 (stereo not drawn)
inactive: endpoint: mean survival time, dose: 100.0 mg/kg/injection, schedule: Q01DX001 (ip), vehicle: Klucel (hydroxypropylcellulose) (HPC) 90 % of control | endpoint: mean survival time, dose: 200.0 mg/kg/injection, schedule: Q01DX001 (ip), vehicle: Klucel (hydroxypropylcellulose) (HPC) 101 % of control | endpoint: mean survival time, dose: 400.0 mg/kg/injection, schedule: Q01DX001 (ip), vehicle: Klucel (hydroxypropylcellulose) (HPC) 98 % of control
